Source: patent US4459290A, “C-23-Modified derivatives of OMT, pharmaceutical compositions and method of use” (priority 1982, dated 1984)
In brackets after ≈: the same amount, converted by molar mass. Read-outs that look alike come from different tables or passages of the source.

What was measured:
[1] = test system: Staphylococcus aureus V41; experiment: MIC, standard agar-dilution assay (Table V); format: cell-based; settings: Staphylococcus aureus, V41
Method: (§1) Especially noteworthy is the improved activity against gram-negative bacteria for several derivatives when compared to the activity of OMT. […] The MIC's in Tables V and VI were determined by standard agar-dilution assays. The MIC's in Table VII were obtained using a conventional broth-dilution microtiter test.

[2] = test system: Staphylococcus aureus X1.1; experiment: MIC, standard agar-dilution assay (Table V); format: cell-based; settings: Staphylococcus aureus, X1.1
Method: as §1

[3] = test system: Staphylococcus aureus X400; experiment: MIC, standard agar-dilution assay (Table V); format: cell-based; settings: Staphylococcus aureus, X400
Method: as §1

Streptococcus Group 9960 = experiment: MIC, standard agar-dilution assay (Table V); format: cell-based; settings: GROUP9960
Method: as §1

[4] = test system: Streptococcus Group D X66; experiment: MIC, standard agar-dilution assay (Table V); format: cell-based
Method: as §1

[5] = test system: Streptococcus pneumoniae Park I; experiment: microbe, parasite or virus in culture; format: cell-based; settings: Streptococcus pneumoniae; read-out: MIC
Method: as §1

[6] = test system: Citrobacter freundii CF17; experiment: MIC, standard agar-dilution assay (Table VI); format: cell-based
Method: as §1

[7] = test system: Enterobacter aerogenes C32; experiment: MIC, standard agar-dilution assay (Table VI); format: cell-based; settings: Klebsiella aerogenes
Method: as §1

[8] = test system: Enterobacter aerogenes EB17; experiment: MIC, standard agar-dilution assay (Table VI); format: cell-based; settings: Klebsiella aerogenes
Method: as §1

Enterobacter cloacae EB5 = experiment: MIC, standard agar-dilution assay (Table VI); format: cell-based
Method: as §1

[9] = test system: Klebsiella pneumoniae X68; experiment: MIC, standard agar-dilution assay (Table VI); format: cell-based
Method: as §1

Proteus inconstans PR33 = experiment: MIC, standard agar-dilution assay (Table VI); format: cell-based; settings: Providencia alcalifaciens
Method: as §1

Proteus morganii PR15 = experiment: MIC, standard agar-dilution assay (Table VI); format: cell-based; settings: Morganella morganii, PR15
Method: as §1

Proteus rettgeri C24 = experiment: MIC, standard agar-dilution assay (Table VI); format: cell-based; settings: Providencia rettgeri, P. rettgeri C24
Method: as §1

Proteus rettgeri PR7 = experiment: MIC, standard agar-dilution assay (Table VI); format: cell-based; settings: Providencia rettgeri; P. rettgeri PR7; agar dilution; read-out: MIC
Method: as §1

[10] = test system: Pseudomonas aeruginosa Ps18; experiment: MIC, standard agar-dilution assay (Table VI); format: cell-based
Method: as §1

[11] = test system: Pseudomonas aeruginosa X239; experiment: MIC, standard agar-dilution assay (Table VI); format: cell-based
Method: as §1

[12] = test system: Pseudomonas aeruginosa X528; experiment: MIC, standard agar-dilution assay (Table VI); format: cell-based; settings: X528
Method: as §1

[13] = test system: Salmonella heidelberg X514; experiment: MIC, standard agar-dilution assay (Table VI); format: cell-based; settings: Salmonella enterica
Method: as §1

Salmonella typhi 1335 = experiment: MIC, standard agar-dilution assay (Table VI); format: cell-based; settings: Salmonella enterica
Method: as §1

Serratia marcescens SE3 = experiment: MIC, standard agar-dilution assay (Table VI); format: cell-based
Method: as §1

Serratia marcescens X99 = experiment: MIC, standard agar-dilution assay (Table VI); format: cell-based
Method: as §1

Mycoplasma gallisepticum = experiment: MIC, broth-dilution microtiter test (Table VII); format: cell-based; settings: Mycoplasmoides gallisepticum
Method: as §1

Mycoplasma hyorhinis = experiment: MIC, broth-dilution microtiter test (Table VII); format: cell-based; settings: M. hyorhinis; broth-dilution microtiter; read-out: MIC
Method: as §1

Mycoplasma synoviae = experiment: MIC, broth-dilution microtiter test (Table VII); format: cell-based; settings: Mycoplasmopsis synoviae; M. synoviae; broth-dilution microtiter; read-out: MIC
Method: as §1

[14] = test system: Pasteurella hemolytica 22C; experiment: MIC, broth-dilution microtiter test (Table VII); format: cell-based; settings: Pasteurella, P. hemolytica 22C, read-out: MIC
Method in brief: (§2)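 Broth microdilution, run as a conventional microtiter test, supplied MICs for the gram-positive S. aureus and the Pasteurella isolates. Enterobacter data instead rest on a standard agar-dilution procedure.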

[15] = test system: Pasteurella hemolytica 23C; experiment: MIC, broth-dilution microtiter test (Table VII); format: cell-based; settings: Pasteurella, P. hemolytica 23C, read-out: MIC
Method in brief: as §2

[16] = test system: Pasteurella hemolytica 41D; experiment: MIC, broth-dilution microtiter test (Table VII); format: cell-based; settings: Pasteurella, P. hemolytica 41D, read-out: MIC
Method in brief: as §2

[17] = test system: Pasteurella multocida 17E; experiment: MIC, broth-dilution microtiter test (Table VII); format: cell-based; settings: Pasteurella multocida; P. multocida 17E, bovine isolate; broth-dilution microtiter; read-out: MIC
Method in brief: (§3)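 Serial compound dilutions were incorporated into agar for testing E. aerogenes. Dilutions in broth, arranged in microtiter wells, were used for S. aureus and P. multocida.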

[18] = test system: Pasteurella multocida 22A; experiment: MIC, broth-dilution microtiter test (Table VII); format: cell-based; settings: Pasteurella multocida
Method in brief: as §3

[19] = test system: Pasteurella multocida 40G; experiment: MIC, broth-dilution microtiter test (Table VII); format: cell-based; settings: Pasteurella multocida; P. multocida 40G; broth-dilution microtiter; read-out: MIC
Method in brief: as §3

[20] = test system: Pasteurella multocida 60A; experiment: MIC, broth-dilution microtiter test (Table VII); format: cell-based; settings: Pasteurella multocida; P. multocida 60A, avian isolate; broth-dilution microtiter; read-out: MIC
Method in brief: as §3

[21] = test system: Pasteurella multocida 68C; experiment: MIC, broth-dilution microtiter test (Table VII); format: cell-based; settings: Pasteurella multocida; P. multocida 68C; broth-dilution microtiter; read-out: MIC
Method in brief: as §3

Staphylococcus aureus = experiment: MIC, broth-dilution microtiter test (Table VII); format: cell-based; settings: Staphylococcus aureus
Method in brief: as §3

Streptococcus sp. 80 = experiment: MIC, broth-dilution microtiter test (Table VII); format: cell-based
Method: as §1

[22] = test system: Streptococcus pyogenes C203; experiment: ED50 in mice experimentally infected with S. pyogenes C203 (Table VIII); format: in vivo
Method: The C-23 modified derivatives of OMT of this invention have shown in vivo antimicrobial activity against experimental infections. When two doses of test compound were administered to mice experimentally infected with a gram-positive bacterium, S. pyogenes C203, the activity observed was measured as an ED50 value [effective dose in mg/kg to protect 50% of the test animals: see Warren Wick, et al., J. Bacteriol. 81, 233-235 (1961)].

[23] = C203, sc, mice, subcutaneous, doses given 1 and 4 hours postinfection, read-out: ED50, Subcutaneous

## CCC1OC(=O)CC(O)C(C)C(OC2OC(C)C(O)C(N(C)C)C2O)C(CC=O)CC(C)C(=O)C=CC(C)=CC1CSc1nnc(C)s1 (centres unmarked) [Compound 3, 23-Deoxy-23-(5-methyl-1,3,4-thiadiazol-2-yl)thio-OMT]
[1]
  MIC: 0.25 µg/mL (≈ 0.351 µM)
[2]
  MIC: 0.25 µg/mL (≈ 0.351 µM)
[3]
  MIC: 0.25 µg/mL (≈ 0.351 µM)
Streptococcus Group 9960
  MIC: 0.25 µg/mL (≈ 0.351 µM)
[4]
  MIC: 0.25 µg/mL (≈ 0.351 µM)
[5]
  MIC: 0.06 µg/mL (≈ 0.0843 µM)
[6]; C. freundii CF17, agar dilution, read-out: MIC
  MIC: > 128 µg/mL
[7]; E. aerogenes C32, agar dilution, read-out: MIC
  MIC: > 128 µg/mL
[8]; E. aerogenes EB17, agar dilution, read-out: MIC
  MIC: > 128 µg/mL
Enterobacter cloacae EB5; E. cloacae EB5, agar dilution, read-out: MIC
  MIC: > 128 µg/mL
[9]; K. pneumoniae X68, agar dilution, read-out: MIC
  MIC: > 128 µg/mL
Proteus inconstans PR33; P. inconstans PR33, agar dilution, read-out: MIC
  MIC: > 128 µg/mL
Proteus morganii PR15
  MIC: 64 µg/mL (≈ 89.9 µM)
Proteus rettgeri C24
  MIC: 64 µg/mL (≈ 89.9 µM)
Proteus rettgeri PR7
  MIC: 64 µg/mL (≈ 89.9 µM)
[10]; P. aeruginosa Ps18, agar dilution, read-out: MIC
  MIC: > 128 µg/mL
[11]; P. aeruginosa X239, agar dilution, read-out: MIC
  MIC: > 128 µg/mL
[12]
  MIC: 64 µg/mL (≈ 89.9 µM)
[13]; S. heidelberg X514, agar dilution, read-out: MIC
  MIC: > 128 µg/mL
Salmonella typhi 1335
  MIC: > 128 µg/mL
Serratia marcescens SE3; S. marcescens SE3, agar dilution, read-out: MIC
  MIC: > 128 µg/mL
Serratia marcescens X99; S. marcescens X99, agar dilution, read-out: MIC
  MIC: > 128 µg/mL
Mycoplasma gallisepticum; M. gallisepticum, broth-dilution microtiter, read-out: MIC
  MIC: 0.19 µg/mL (≈ 0.267 µM)
Mycoplasma hyorhinis
  MIC: 6.25 µg/mL (≈ 8.78 µM)
Mycoplasma synoviae
  MIC: 0.39 µg/mL (≈ 0.548 µM)
[14]
  MIC: 12.5 µg/mL (≈ 17.6 µM)
[15]
  MIC: 6.25 µg/mL (≈ 8.78 µM)
[16]
  MIC: 6.25 µg/mL (≈ 8.78 µM)
[17]
  MIC: 6.25 µg/mL (≈ 8.78 µM)
[18]; 22A
  MIC: 3.12 µg/mL (≈ 4.38 µM)
[19]
  MIC: 1.56 µg/mL (≈ 2.19 µM)
[20]
  MIC: 6.25 µg/mL (≈ 8.78 µM)
[21]
  MIC: 6.25 µg/mL (≈ 8.78 µM)
Staphylococcus aureus; S. aureus, broth-dilution microtiter, read-out: MIC
  MIC: 0.78 µg/mL (≈ 1.1 µM)
Streptococcus sp. 80; Streptococcus sp. 80, broth-dilution microtiter, read-out: MIC
  MIC: 0.39 µg/mL (≈ 0.548 µM)
[22]; C203, mice, oral, doses given 1 and 4 hours postinfection, read-out: ED50, Oral
  ED50: 81 mg/kg
[22]; [23]
  ED50: 22.3 mg/kg

## CCC1OC(=O)CC(O)C(C)C(OC2OC(C)C(O)C(N(C)C)C2O)C(CC=O)CC(C)C(=O)C=CC(C)=CC1CSc1nnnn1C (centres unmarked) [Compound 5, 23-Deoxy-23-(1-methyltetrazol-5-yl)thio-OMT]
[1]
  MIC: 0.5 µg/mL (≈ 0.719 µM)
[2]
  MIC: 0.5 µg/mL (≈ 0.719 µM)
[3]
  MIC: 0.5 µg/mL (≈ 0.719 µM)
Streptococcus Group 9960; Streptococcus Group 9960, agar dilution, read-out: MIC
  MIC: 0.5 µg/mL (≈ 0.719 µM)
[4]; Streptococcus Group D X66, agar dilution, read-out: MIC
  MIC: 0.5 µg/mL (≈ 0.719 µM)
[5]
  MIC: 0.06 µg/mL (≈ 0.0862 µM)
[6]; CF17
  MIC: > 128 µg/mL
[7]; C32
  MIC: > 128 µg/mL
[8]; EB17
  MIC: > 128 µg/mL
Enterobacter cloacae EB5; EB5
  MIC: > 128 µg/mL
[9]; X68
  MIC: > 128 µg/mL
Proteus inconstans PR33; PR33
  MIC: > 128 µg/mL
Proteus morganii PR15
  MIC: > 128 µg/mL
Proteus rettgeri C24
  MIC: 64 µg/mL (≈ 92 µM)
Proteus rettgeri PR7
  MIC: 64 µg/mL (≈ 92 µM)
[10]; PS18
  MIC: > 128 µg/mL
[11]; X239
  MIC: > 128 µg/mL
[12]
  MIC: 64 µg/mL (≈ 92 µM)
[13]; X514
  MIC: > 128 µg/mL
Salmonella typhi 1335
  MIC: > 128 µg/mL
Serratia marcescens SE3; SE3
  MIC: > 128 µg/mL
Serratia marcescens X99; X99
  MIC: > 128 µg/mL
Mycoplasma gallisepticum
  MIC: 1.56 µg/mL (≈ 2.24 µM)
Mycoplasma hyorhinis
  MIC: 6.25 µg/mL (≈ 8.98 µM)
Mycoplasma synoviae
  MIC: 0.78 µg/mL (≈ 1.12 µM)
[14]
  MIC: 12.5 µg/mL (≈ 18 µM)
[15]
  MIC: 12.5 µg/mL (≈ 18 µM)
[16]
  MIC: 12.5 µg/mL (≈ 18 µM)
[17]
  MIC: 6.25 µg/mL (≈ 8.98 µM)
[18]; P. multocida 22A, broth-dilution microtiter, read-out: MIC
  MIC: 6.25 µg/mL (≈ 8.98 µM)
[19]
  MIC: 3.12 µg/mL (≈ 4.48 µM)
[20]
  MIC: 6.25 µg/mL (≈ 8.98 µM)
[21]
  MIC: 6.25 µg/mL (≈ 8.98 µM)
Staphylococcus aureus
  MIC: 1.56 µg/mL (≈ 2.24 µM)
Streptococcus sp. 80; Streptococcus, SP.80
  MIC: 1.56 µg/mL (≈ 2.24 µM)
[22]; C203, po, read-out: ED50, Oral
  ED50: > 100 mg/kg
[22]; [23]
  ED50: 13.7 mg/kg
